Laboratory results reported in ChEMBL document CHEMBL1201862, “PubChem BioAssay data set” (2004).
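Where inhibition never reached the appropriate level, the endpoint shown equals the highest concentration tested. Otherwise, values were interpolated linearly from a five-concentration, 48-hour dose response in 96-well plates. GI50 marks 50% less growth.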 The source made the active and inactive calls. Cut-off read from the data, not from the text of the source: active = GI50 up to about 1.1 µM and inactive = higher.

How the values were obtained:
Assay in all cases: NCI tumour cell line growth inhibition, 48 h
IGROV-1 = system: IGROV-1
NCI-H226 = system: NCI-H226
OVCAR-5 = system: OVCAR-5
SNB-19 = system: SNB-19
Hs-578T = system: Hs-578T
HCC 2998 = system: HCC 2998
MCF7 = system: MCF7
SK-MEL-28 = system: SK-MEL-28
DU-145 = system: DU-145
RXF 393 = system: RXF 393
T47D = system: T47D
SK-MEL-5 = system: SK-MEL-5
SF-268 = system: SF-268
A549 = system: A549
MOLT-4 = system: MOLT-4
HOP-92 = system: HOP-92
EKVX = system: EKVX
A498 = system: A498
SW-620 = system: SW-620
SNB-75 = system: SNB-75

Measured: GI50

Cc1nnc(N)nc1/C=C\c1cccs1
inactive: IGROV-1 12 µM | NCI-H226 17.5 µM | OVCAR-5 21.8 µM | SNB-19 33.6 µM | Hs-578T 19.9 µM | HCC 2998 14.6 µM | MCF7 13.9 µM | SK-MEL-28 28.8 µM | DU-145 79.6 µM | RXF 393 19.5 µM | T47D 46.9 µM | SK-MEL-5 > 10 µM | SF-268 19.5 µM | A549 27.7 µM | MOLT-4 32.3 µM | HOP-92 18.4 µM | EKVX 13.3 µM | A498 22 µM | SW-620 25.5 µM

CCN(CC)CCOc1ccc(N2C(=O)c3cc(OC)c(OC)cc3C2=O)cc1
inactive: IGROV-1 > 100 µM | NCI-H226 > 100 µM | OVCAR-5 > 100 µM | SNB-19 > 100 µM | Hs-578T > 100 µM | HCC 2998 > 100 µM | MCF7 > 100 µM | SK-MEL-28 > 100 µM | DU-145 > 100 µM | RXF 393 > 100 µM | T47D > 100 µM | SK-MEL-5 > 100 µM | SF-268 > 100 µM | A549 > 100 µM | MOLT-4 > 100 µM | HOP-92 > 100 µM | EKVX > 100 µM | A498 > 100 µM | SW-620 > 100 µM

CC(C)(C)OC(=O)NCCC1CN(C(=O)c2ccccc2)c2ccccc21 (stereo unspecified)
inactive: IGROV-1 29.5 µM | SNB-75 28.7 µM | OVCAR-5 32.7 µM | SNB-19 32 µM | Hs-578T 43.5 µM | HCC 2998 73.1 µM | MCF7 28.2 µM | SK-MEL-28 32.7 µM | DU-145 45.8 µM | RXF 393 28 µM | T47D 25.2 µM | SK-MEL-5 16.4 µM | SF-268 41.3 µM | A549 25.3 µM | MOLT-4 22.1 µM | HOP-92 26.5 µM | EKVX 25.6 µM | A498 > 100 µM | SW-620 34.2 µM

CC(C)n1c2c(c3ccccc3c1=O)C(=O)c1ccccc1-2
inactive: IGROV-1 > 100 µM | NCI-H226 > 100 µM | SNB-75 > 100 µM | OVCAR-5 > 100 µM | SNB-19 > 100 µM | Hs-578T > 100 µM | HCC 2998 > 100 µM | MCF7 > 100 µM | SK-MEL-28 > 100 µM | DU-145 > 100 µM | T47D > 100 µM | SK-MEL-5 > 100 µM | SF-268 > 100 µM | A549 > 100 µM | MOLT-4 > 100 µM | HOP-92 > 100 µM | EKVX > 100 µM | A498 > 100 µM | SW-620 > 100 µM
